The supplement of paper PMC8882468

Tests used:
Assay in all cases: CTG-3D luminescence at 96 h relative to day-0 seeding control (ratio to day 0); higher = more growth / less cytotoxicity; PDxO 3D drug screen, 96 h, CTG-3D normalised to day-0 seeding control.
[1] = test system: HCI-019 (organoid from a triple-negative breast cancer xenograft)
[2] = test system: HCI-027 (organoid from a triple-negative breast cancer xenograft)
[3] = test system: HCI-016 (organoid from a triple-negative breast cancer xenograft)

CN(Cc1cnc2nc(N)nc(N)c2n1)c1ccc(C(=O)N[C@@H](CCC(=O)O)C(=O)O)cc1 [methotrexate]
CTG-3D luminescence at 96 h
Conditions | 12.5 pM | 0.00025 µM | 0.005 µM | 0.1 µM | 1 µM | 10 µM | 100 µM | 625 fM
[1], days in culture: 110 | – | – | – | 1.92 | 1.17 | 1.54 | 1.35 | 2.13
[1], days in culture: 131 | – | – | – | 2.59 | 2.04 | 2.25 | 2.11 | 3.85
[1], days in culture: 152 | – | – | 2.89 | 2.1 | 2.27 | 2.28 | 2.16 | 2.17
[2], days in culture: 176 | 2.07 | 1.47 | 2.43 | 1.51 | 1.97 | 1.55 | 1.68 | 1.28
[2], days in culture: 194 | 1.69 | 1.38 | 1.57 | 1.17 | 1.04 | 1.07 | 0.572 | 1.44
[2], days in culture: 201 | 1.69 | 1.66 | 2.26 | 1.14 | 0.939 | 0.886 | 0.445 | 1.25
[3], days in culture: 153 | 3.33 | 1.65 | 2.64 | 1.65 | 1.9 | 2.08 | 1.39 | 2.86
[3], days in culture: 172 | 2.17 | 1.68 | 1.56 | 1.51 | 1.49 | 1.25 | 1.41 | 1.71
[3], days in culture: 190 | 1.69 | 1.3 | 1.7 | 0.906 | 1.08 | 1.21 | 1.52 | 0.969
[3], days in culture: 199 | 1.57 | 1.47 | 1.56 | 1.47 | 1.53 | 1.37 | 1.26 | 1.73
